Data from patent US4100276A, “Fusidic acid derivatives” (priority 1975, dated 1978).
In brackets after ≈: the same amount, converted by molar mass. Entries after “also recorded” stand apart in the source; their conditions may differ. Structures can show the parent of a compound that is named as a salt. Where two headings read alike, the source gives them in different places.

Columns and labels:
[1] = test system: Streptococcus sp. Leo EG2; test: In vitro activity, concentration required for 50% inhibition (Table A); type: cell-based; details: Streptococcus, read-out: Concentration required for 50% inhibition (IC50)
[2] = test system: Streptococcus pyogenes; test: In vitro bactericidal effect, viable counts (Example 44); type: cell-based; details: 10 μg/ml, NIH broth, 37° C; for Viable count after 0 hr: 0 hr (inoculum)
Procedure: In vitro bactericidal effect of 3α,11α-dihydroxy-16β-phenylthiofusida-13(17),24-dien-21-oic acid compared to that of fusidic acid […]
To two tubes containing NIH broth was added: a. The sodium salt of 3α,11α-dihydroxy-16β-phenylthiofusida-13(17),24-dien-21-oic acid (10 μg/ml) […]
b. The sodium salt of fusidic acid (10 μg/ml)
The tubes were inoculated with Streptococcus pyogenes to give 9.2×10^4 organisms per ml, incubated at 37° C, and the viable counts were determined at intervals.
A third tube was treated similarly without addition of any of the antibiotics and used as a control: […]

[3] = test system: Staphylococcus aureus Leo CC178B; test: In vitro activity, concentration required for 50% inhibition (Table A); type: cell-based; details: Staphylococcus aureus, LEOCC178B, read-out: Concentration required for 50% inhibition (IC50)
[4] = test system: Staphylococcus aureus; test: In vitro effect of combination with dihydro-fusidic acid, viable counts (Example 46); type: cell-based; details: tubes a, b 10 μg/ml, tube c 5 + 5 μg/ml
Procedure: In vitro-effect of the combination of dihydro-fusidic acid and 3α,11α-dihydroxy-16β-phenylthio-fusida-13(17),24-dien-21- oic acid
To three tubes containing NIH broth was added:
a. The sodium salt of dihydro-fusidic acid (10 μg/ml).
b. The sodium salt of 3α,11α-dihydroxy-16-phenylthiofusida-13(17),24-dien-21-oic acid (10 μg/ml).
c. A mixture of the sodium salts of dihydro-fusidic acid (5 μg/ml) and 3α,11α-dihydroxy-16-phenylthiofusida-13(17),24-dien-21-oic acid (5 μg/ml).
The tubes were inoculated with Staphylococcus aureus to give 5.2 × 10^5 organisms per ml, incubated at 37° C for 96 hours, and the viable counts were determined.
(§1) A fourth tube was treated similarly without addition of any of the antibiotics and used as a control: […]

[5] = test system: Staph. aureus, Leo CC178H2 (fusidic acid resistant strain); test: In vitro activity, concentration required for 50% inhibition (Table A); type: cell-based; details: Staphylococcus aureus, read-out: Concentration required for 50% inhibition (IC50)
[6] = test system: Bacteroides fragilis, Leo JA2; test: as above; type: cell-based; details: Bacteroides fragilis, LEOJA2, read-out: Concentration required for 50% inhibition (IC50)
[7] = test system: Staph. aureus Leo CJ145; test: as above; type: cell-based; details: Staphylococcus aureus, LEOCJ145, read-out: Concentration required for 50% inhibition (IC50)
[8] = test system: Streptococcus pyogenes Leo EC; test: as above; type: cell-based; details: Streptococcus pyogenes, read-out: Concentration required for 50% inhibition (IC50)
[9] = test system: Corynebact. acnes Leo FN; test: as above; type: cell-based, Corynebacterium acnes; details: Cutibacterium acnes, read-out: Concentration required for 50% inhibition (IC50)
[10] = test system: Staphylococcus aureus; test: In vitro effect of combination with fusidic acid, viable counts (Example 45); type: cell-based; details: 24 hours; for Viable count: 37° C, fusidic acid 1 μg/ml (tube a), isopropylthio compound 3 μg/ml (tube b), mixture 1 + 3 μg/ml (tube c), inoculum 1.4×10^4; for Resistance of surviving organisms to the compound / development of resistance: fusidic acid 1 μg/ml, isopropylthio compound 3 μg/ml, mixture 1 + 3 μg/ml
Procedure: In vitro-effect of the combination of fusidic acid and 3α,11α-dihydroxy-16β-isopropylthio-fusida-13(17),24-dien- 21-oic acid
To 3 tubes containing NIH broth was added:
a. The sodium salt of fusidic acid (1 μg/ml).
b. The sodium salt of 3α,11α-dihydroxy-16-isopropylthiofusida-13(17),24-dien-21-oic acid (3 μg/ml).
c. A mixture of the sodium salts of fusidic acid (1 μg/ml) and 3α,11α-dihydroxy-16-isopropylthiofusida-13(17),24-dien-21-oic acid (3 μg/ml).
The tubes were inoculated with Staphylococcus aureus to give 1.4×10^4 organisms per ml, incubated at 37° C for 24 hours, and the viable counts were determined.
as §1

[11] = test system: Staph. aureus (Leo CC 178B), fusidic acid sensitive strain; test: microbe, parasite or virus in culture; type: cell-based; details: Staphylococcus aureus, isolates from "Comp. of Ex 8 cult." (48 hours pretreatment)
[12] = test system: Staph. aureus (Leo CC 178B), fusidic acid sensitive strain; test: microbe, parasite or virus in culture; type: cell-based; details: for IC50: Staphylococcus aureus
Procedure: Prevention of development of resistance against fusidic acid as a result of treating Staph. aureus with the sodium salt of 3α,11α-dihydroxy-16β-isopropylthiofusida-13(17),24-dien-21-oic acid
After a 48 hours pretreatment of a fusidic acid sensitive strain of Staph. aureus (Leo CC 178B) with subinhibitory concentrations of fusidic acid or the compound of Example 9. The sensitivities of the pretreated cultures and of the original strain against the two compounds were determined. The determinations were made by serial dilutions in NIH-broth, inoculum size 2.10^5 organisms/ml, and read as IC50 after 18 and 48 hours.

[13] = test system: fusidic acid sensitive strain of Staph. aureus (Leo CC 178B); test: In vitro activity before and after a number of transfers (Example 48, Table C); type: cell-based; details: for IC50: Staphylococcus aureus, Leo CC 178B (fusidic acid sensitive), overnight incubation
Procedure: (§2) In vitro activity of 3α,11α-dihydroxy-16β-ethylthiofusida-13(17),24-dien-21-oic acid against Staph. aureus before and after a number of transfers.
(§3) Serial dilutions of the compound above were made in liquid NIH-medium and then heavily inoculated with either a fusidic acid sensitive strain of Staph. aureus (Leo CC 178B) or with a fusidic acid resistant variant of the same strain (Leo CC 178A).
(§4) After every 72 to 96 hours transfers were made from the tubes containing the largest amount of the test compound showing full growth.

[14] = test system: fusidic acid resistant variant of Staph. aureus (Leo CC 178A); test: as above; type: cell-based; details: for IC50: Staphylococcus aureus
Procedure: as §2, §3, §4

[15] = test system: bacteria; test: In vitro investigations of antibacterial activity (general statements); type: cell-based
[16] = Absorption from the gastro-intestinal tract; details: in vivo
[17] = 18 h, isolates from control culture, inoculum 2.10^5 organisms/ml, NIH-broth, read-out: IC50, 18 hours
[18] = 48 h, isolates from control culture, inoculum 2.10^5 organisms/ml, NIH-broth, read-out: IC50, 48 hours
[19] = isolates from fusidic acid pretreated culture (48 hours pretreatment), read-out: IC50, 18 hours
[20] = isolates from fusidic acid pretreated culture (48 hours pretreatment), read-out: IC50, 48 hours
[21] = read-out: IC50 after 1st transfer
[22] = read-out: IC50 after 2nd transfer
[23] = read-out: IC50 after 3rd transfer
[24] = read-out: IC50 after 4th transfer
[25] = read-out: IC50 after 5th transfer
[26] = read-out: IC50 after 6th transfer

SMILES: CC(C)=CCCC(C(=O)O)C1=C2C[C@@H](O)[C@H]3[C@@]4(C)CC[C@@H](O)[C@@H](C)[C@@H]4CC[C@]3(C)[C@@]2(C)C[C@@H]1Sc1ccccc1 (stereo partly drawn) [Example 1, 3α,11α-Dihydroxy-16β -phenylthiofusida-13(17), 24-dien-21-oic acid sodium salt]
- IC50 [1]: 1.6 µg/mL
- Viable count after 0 hr [2]: 9.2 × 10^4 organisms per ml
- Viable count after 1.5 hr ([2]; inoculum 9.2×10^4): 1.4 × 10^4 organisms per ml
- Viable count after 4 hr ([2]; inoculum 9.2×10^4): 5.7 × 10^2 organisms per ml
- IC50 [3]: 1.6 µg/mL
- Viable counts after 6 1/2 hours ([4]; 37° C, inoculum 5.2 × 10^5): 1.1 × 10^4 organisms per ml
- Viable counts after 2 hours ([4]; 37° C, inoculum 5.2 × 10^5): 5.2 × 10^4 organisms per ml
- Viable counts after 24 hours ([4]; 37° C, inoculum 5.2 × 10^5): 3.1 × 10^6 organisms per ml
- Resistance of surviving organisms to the compound / development of resistance ([4]; 96 hours): resistant to 3α,11α-dihydroxy-16β-phenylthio-fusida-13(17),24-dien-21- oic acid
- IC50 [5]: 1.6 µg/mL
- IC50 [6]: 20 µg/mL
- IC50 [7]: 3.2 µg/mL
- IC50 [8]: 0.5 µg/mL
- IC50 [9]: 0.5 µg/mL

SMILES: CC(C)=CCCC(C(=O)O)C1=C2C[C@@H](O)[C@H]3[C@@]4(C)CC[C@@H](O)[C@@H](C)[C@@H]4CC[C@]3(C)[C@@]2(C)C[C@@H]1SC(C)C (stereo partly drawn) [Example 9, 3α,11α-dihydroxy-16β-isopropylthiofusida-13(17), 24-dien-21-oic acid sodium salt]
- Viable count [10]: 1.5 × 10^6 organisms per ml
- Resistance of surviving organisms to the compound / development of resistance [10]: resistant to 3α,11α-dihydroxy-16β-isopropylthio-fusida-13(17),24-dien- 21-oic acid
- IC50 ([11]; read-out: IC50, 18 hours): 5 µg/mL
- IC50 ([11]; read-out: IC50, 48 hours): 16 µg/mL
- Emergence of resistance against fusidic acid / change of sensitivity after pretreatment ([12]; 48 hours pretreatment with subinhibitory concentrations, sodium salt): Only a slight decrease of the sensitivity; also recorded: totally prohibited the emergence of resistance against fusidic acid
- IC50 [12, 17]: 2 µg/mL
- IC50 [12, 18]: 5 µg/mL
- IC50 [12, 19]: 1.6 µg/mL
- IC50 [12, 20]: 5 µg/mL

SMILES: CCS[C@H]1C[C@@]2(C)C(=C1C(CCC=C(C)C)C(=O)O)C[C@@H](O)[C@H]1[C@@]3(C)CC[C@@H](O)[C@@H](C)[C@@H]3CC[C@@]12C (stereo partly drawn) [Example 11, 3α,11α-dihydroxy-16β-ethylthiofusida-13(17),24-dien-21-oic acid sodium salt]
- IC50 [1]: 1.6 µg/mL
- IC50 [3]: 2.7 µg/mL
- IC50 [5]: 3.2 µg/mL
- IC50 [6]: 2 µg/mL
- IC50 [7]: 3.2 µg/mL
- IC50 [13, 21]: 2 µg/mL
- IC50 [13, 22]: 7.4 µg/mL
- IC50 [13, 23]: 7.4 µg/mL
- IC50 [13, 24]: 13.5 µg/mL
- IC50 [13, 25]: 10 µg/mL
- IC50 [13, 26]: 32 µg/mL
- IC50 ([13]; read-out: IC50 before transfer): 2.7 µg/mL
- Decrease of sensitivity after the 6th transfer ([13]; fusidic acid sensitive strain): 12 fold
- IC50 [14, 21]: 2.3 µg/mL
- IC50 [14, 22]: 3.8 µg/mL
- IC50 [14, 23]: 4.3 µg/mL
- IC50 [14, 24]: 4.2 µg/mL
- IC50 [14, 25]: 4 µg/mL
- IC50 [14, 26]: 4 µg/mL
- IC50 ([14]; read-out: IC50 before transfer): 2.7 µg/mL
- Change in sensitivity after transfers ([14]; fusidic acid resistant strain): hardly shows any change in sensitivity
- IC50 [8]: 1.6 µg/mL
- IC50 [9]: 2 µg/mL

SMILES: CC(=O)O[C@H]1C[C@@]2(C)[C@@H](C[C@@H](O)[C@H]3[C@@]4(C)CC[C@@H](O)[C@@H](C)[C@@H]4CC[C@@]32C)/C1=C(\CCC=C(C)C)C(=O)O [Fusidic acid]
- Resistance of surviving organisms to the compound / development of resistance [10]: resistant to fusidic acid
- Antibacterial effect, bactericidal/bacteriostatic (in words) [15]: solely bacteriostatic
- IC50 ([11]; read-out: IC50, 18 hours): 0.016 µg/mL (≈ 0.031 µM)
- IC50 ([11]; read-out: IC50, 48 hours): 0.02 µg/mL (≈ 0.0387 µM)
- IC50 [1]: 1.6 µg/mL (≈ 3.1 µM)
- IC50 [12, 17]: 0.016 µg/mL (≈ 0.031 µM)
- IC50 [12, 18]: 1 µg/mL (≈ 1.94 µM)
- IC50 [12, 19]: 7.9 µg/mL (≈ 15.3 µM)
- IC50 [12, 20]: 50 µg/mL (≈ 96.8 µM)
- IC50 [3]: 0.025 µg/mL (≈ 0.0484 µM)
- IC50 [5]: 32 µg/mL (≈ 61.9 µM)
- IC50 [6]: 1.6 µg/mL (≈ 3.1 µM)
- IC50 [7]: 16 µg/mL (≈ 31 µM)
- Absorption from the gastro-intestinal tract (in words) [16]: absorbed efficiently from the gastro-intestinal tract
- IC50 [8]: 0.63 µg/mL (≈ 1.22 µM)
- IC50 [9]: 0.2 µg/mL (≈ 0.387 µM)

SMILES: CC(=O)O[C@H]1C[C@@]2(C)[C@@H](C[C@@H](O)[C@H]3[C@@]4(C)CC[C@@H](O)[C@@H](C)[C@@H]4CC[C@@]32C)/C1=C(\CCC=C(C)C)C(=O)O [sodium salt of fusidic acid]
- Viable count [10]: 1.8 × 10^8 organisms per ml
- Viable count after 0 hr [2]: 9.2 × 10^4 organisms per ml
- Viable count after 1.5 hr ([2]; inoculum 9.2×10^4): 1.2 × 10^5 organisms per ml
- Viable count after 4 hr ([2]; inoculum 9.2×10^4): 1.5 × 10^5 organisms per ml
- Viable count after 7 hr ([2]; inoculum 9.2×10^4): 1.3 × 10^5 organisms per ml
